The record followed here is ChEMBL document CHEMBL5131572, “Identification of a Potent, Selective, and Brain-Penetrant Rho Kinase Inhibitor and its Activity in a Mouse Model of Huntington's Disease” (J Med Chem, 2022).

Values after ≈ are worked out from the molar mass of the structure shown.

Series [1] can be described thus: Inhibition of ROCK in rat A7R5 cells assessed as cofilin serine 3 phosphorylation incubated for 1 hr by ICW assay. The following applies: A7R5, 1 h.
Series [2] addresses Rho-associated protein kinase 2 (Homo sapiens, UniProt O75116). Kind of series: Inhibition of recombinant N-terminal GST-tagged human ROCK2 (5 to 554 residues) expressed in baculovirus infected Sf9 cells using S6K as substrate incubated for 30 mins in presence of ATP by ADP Glo kinase assay. In general terms: ADP-Glo turns the ADP formed in a reaction into a luminescent signal.

Series [3] deals with T1, cGMP-dependent protein kinase 1 (Homo sapiens, UniProt Q13976).
T1 sequence (Q13976 whole entry): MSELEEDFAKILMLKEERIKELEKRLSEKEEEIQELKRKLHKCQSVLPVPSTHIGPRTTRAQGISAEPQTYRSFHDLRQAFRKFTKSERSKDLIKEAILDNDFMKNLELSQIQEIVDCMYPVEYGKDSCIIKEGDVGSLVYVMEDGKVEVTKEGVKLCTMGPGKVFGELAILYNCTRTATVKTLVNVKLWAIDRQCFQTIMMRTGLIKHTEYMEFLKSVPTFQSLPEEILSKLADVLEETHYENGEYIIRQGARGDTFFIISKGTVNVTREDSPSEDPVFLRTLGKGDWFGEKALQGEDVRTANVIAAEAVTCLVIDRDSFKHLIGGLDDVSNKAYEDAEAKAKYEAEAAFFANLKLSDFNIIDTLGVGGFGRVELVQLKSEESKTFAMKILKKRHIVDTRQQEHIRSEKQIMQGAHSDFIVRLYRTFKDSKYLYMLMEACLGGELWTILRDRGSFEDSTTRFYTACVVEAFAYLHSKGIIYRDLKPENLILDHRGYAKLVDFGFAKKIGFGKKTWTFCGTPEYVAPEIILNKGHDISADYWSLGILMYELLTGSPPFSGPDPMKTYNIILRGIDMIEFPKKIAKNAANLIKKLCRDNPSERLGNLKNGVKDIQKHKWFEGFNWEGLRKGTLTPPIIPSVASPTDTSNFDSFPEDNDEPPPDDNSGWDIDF
Nature of the series: Inhibition of full length recombinant N-terminal GST-tagged human PKG expressed in baculovirus infected Sf9 insect cells using RSK as substrate preincubated for 15 mins followed by substrate addition and measured after 30 mins in presence of ATP by ADP Glo kinase assay.

The test system of the next series is MDR1. Nature of the series: in vitro. The note with it: dog, MDCK-MDR1.
Series [4] in a line: Distribution coefficient, logD of compound by chromatographic method. The following applies: octanol/water. It counts as physicochemical.
The nature of series [5]: Apparent permeability in MDCK-MDR1 cells at 10 uM after 1 hr by LC-MS/MS analysis. It counts as ADME, cell-based, Canis lupus familiaris. The note with it: dog.
A short description of series [6]: Kinetic solubility of the compound in pH 7.4 PBS buffer incubated for 2 hrs using orbital shaker by LC-UV mass spectrometry. The note with it: read-out: Kinetic_solubility. It counts as physicochemical.
A short description of series [7]: Metabolic stability in mouse liver microsomes assessed as intrinsic clearance at 1 uM measured upto 40 mins in presence of NADPH by LC-MS/MS analysis. It counts as ADME, Microsome. The note with it: read-out: CLH. In general terms: Microsomes from liver hold many membrane-bound enzymes, among them those of drug oxidation.
The nature of series [8]: Lipophilicity, logP of compound. It counts as physicochemical. The following applies: octanol/water.
The target in series [9] is RAC-alpha serine/threonine-protein kinase (Homo sapiens, UniProt P31749). Nature of the series: Inhibition of AKT (unknown origin).
Chain of RAC-alpha serine/threonine-protein kinase (P31749 whole entry): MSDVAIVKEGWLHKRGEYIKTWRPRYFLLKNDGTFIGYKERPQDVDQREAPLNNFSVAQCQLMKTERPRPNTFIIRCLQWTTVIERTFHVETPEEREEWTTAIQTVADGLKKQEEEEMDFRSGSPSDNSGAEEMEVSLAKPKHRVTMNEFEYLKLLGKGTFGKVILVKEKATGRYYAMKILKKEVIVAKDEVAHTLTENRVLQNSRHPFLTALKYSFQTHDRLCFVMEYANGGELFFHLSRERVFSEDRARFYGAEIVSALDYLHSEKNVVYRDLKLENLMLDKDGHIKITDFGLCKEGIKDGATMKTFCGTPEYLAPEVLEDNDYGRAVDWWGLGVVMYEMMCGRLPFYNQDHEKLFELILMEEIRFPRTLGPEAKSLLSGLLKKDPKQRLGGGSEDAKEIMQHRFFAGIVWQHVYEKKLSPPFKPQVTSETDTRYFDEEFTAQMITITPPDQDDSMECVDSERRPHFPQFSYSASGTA

Chain of Rho-associated protein kinase 2 (O75116 whole entry, the tested form may be a part): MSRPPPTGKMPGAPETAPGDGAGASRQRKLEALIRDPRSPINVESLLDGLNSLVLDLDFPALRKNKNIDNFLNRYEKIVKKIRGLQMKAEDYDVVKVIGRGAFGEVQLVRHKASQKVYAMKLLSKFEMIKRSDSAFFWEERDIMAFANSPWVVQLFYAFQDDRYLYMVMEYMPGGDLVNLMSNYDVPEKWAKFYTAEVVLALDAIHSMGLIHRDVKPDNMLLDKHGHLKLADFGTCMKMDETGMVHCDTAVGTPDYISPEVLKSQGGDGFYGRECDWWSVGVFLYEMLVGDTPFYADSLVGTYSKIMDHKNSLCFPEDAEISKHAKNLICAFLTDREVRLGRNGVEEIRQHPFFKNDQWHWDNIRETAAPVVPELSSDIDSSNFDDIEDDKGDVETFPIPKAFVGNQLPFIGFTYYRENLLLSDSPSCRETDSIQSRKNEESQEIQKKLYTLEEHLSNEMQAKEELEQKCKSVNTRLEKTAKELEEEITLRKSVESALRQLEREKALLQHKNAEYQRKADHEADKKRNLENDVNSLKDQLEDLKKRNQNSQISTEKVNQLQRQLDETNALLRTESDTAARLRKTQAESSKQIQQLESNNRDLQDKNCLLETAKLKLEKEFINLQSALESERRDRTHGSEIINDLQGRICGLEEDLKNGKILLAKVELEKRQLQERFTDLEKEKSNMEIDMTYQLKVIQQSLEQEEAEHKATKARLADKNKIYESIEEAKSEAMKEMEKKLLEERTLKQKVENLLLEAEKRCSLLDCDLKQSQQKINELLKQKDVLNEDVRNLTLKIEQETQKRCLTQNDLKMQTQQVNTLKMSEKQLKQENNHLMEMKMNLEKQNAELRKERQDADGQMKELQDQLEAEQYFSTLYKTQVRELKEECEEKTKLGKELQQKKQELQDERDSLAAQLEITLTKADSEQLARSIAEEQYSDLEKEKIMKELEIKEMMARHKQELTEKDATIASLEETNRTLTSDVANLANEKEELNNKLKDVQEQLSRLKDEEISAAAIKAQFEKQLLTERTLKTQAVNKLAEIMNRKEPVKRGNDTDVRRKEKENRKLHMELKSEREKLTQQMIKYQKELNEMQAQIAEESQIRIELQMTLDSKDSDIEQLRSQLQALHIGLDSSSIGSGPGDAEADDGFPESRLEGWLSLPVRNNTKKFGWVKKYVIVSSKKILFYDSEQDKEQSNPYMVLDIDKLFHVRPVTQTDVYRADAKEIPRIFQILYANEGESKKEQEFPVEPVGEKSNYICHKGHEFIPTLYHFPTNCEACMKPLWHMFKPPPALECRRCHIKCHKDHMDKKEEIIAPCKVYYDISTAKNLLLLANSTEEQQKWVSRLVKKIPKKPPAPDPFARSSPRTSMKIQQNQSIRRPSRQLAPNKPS
Description for MDR1: Efflux ratio of apparent permeability across basolateral to apical side to apical to basolateral side in MDCK-MDR1 cells at 10 uM measured after 1 hr by LC-MS/MS analysis

In the case of `COc1cccc([C@@H](C)NC(=O)N2CCN(c3ccncc3)C(=O)C2)c1`, the IC50 is above 5000 nM in series [1] and 534 nM in series [2].
With `COc1cccc([C@@H](C)NC(=O)N2CCN(c3ccncn3)C[C@H]2C)c1`, the IC50 was found to be 36500 nM in series [3], 264 nM in [1] and 23 nM in series [2].
Regarding `C[C@@H]1CN(c2ccncc2F)CCN1C(=O)N[C@H](C)c1cccn2nccc12`, in the series with MDR1, the efflux ratio at 1 h, 10 µM was 3.7. The chromatographic logD in series [4] is 1.6. For the same molecule, the Papp at 1 h, 10 µM in series [5] turned out to be 104 ×10⁻⁶ cm/s. Besides, the IC50 in series [3] was found to be 6650 nM; in series [1], 14 nM; in series [2], 2 nM. Besides, the solubility kinetic at 2 h in series [6] is above 200 µM. Further, in [7], the CLint scaled at 1 µM amounted to 169 mL/min/kg. In addition, the logP in [8] was found to be 2.1.
As for `COc1cccc([C@@H](C)NC(=O)N2CC[C@@H](c3ccncc3)C[C@H]2C)c1`, the IC50 in series [3] stood at 19400 nM; in series [1], 249 nM; in [2], 35 nM.
For `COc1cccc([C@@H](C)NC(=O)[C@@H]2CC[C@@H](c3ccncc3)C[C@@H]2C)c1`, in [6], the solubility kinetic at 2 h turned out to be 11 µM (≈ 3.88 µg/mL). Further, the IC50 in series [1] was above 5000 nM; in series [2] it was 851 nM.
On to `C[C@@H]1CN(c2ccncc2F)CCN1C(=O)N[C@H](C)c1cccc2nccn12`, for which the IC50 in series [3] came to 8140 nM; in [1], 18 nM.
Regarding `COc1cccc([C@@H](C)NC(=O)c2ccc(-c3ccnc(F)c3)nn2)c1`, the results for the half-maximal inhibitory concentration (IC50) in [3], in series [1] and in series [2] were 3600 nM, 4270 nM and 280 nM, respectively.
Molecule `COc1ccc(Cl)c([C@@H](C)NC(=O)N2CCN(c3ccncc3F)C[C@H]2C)c1` yielded a chromatographic logD in [4] of 2.7. Also, in series [5], the Papp at 1 h, 10 µM turned out to be 122 ×10⁻⁶ cm/s. Also, the IC50 in series [3] came to 11600 nM; in series [1] it was 164 nM. Besides, the solubility kinetic at 2 h in [6] amounted to 120 µM (≈ 48.8 µg/mL). In addition, in series [7], the CLint scaled at 1 µM is 199 mL/min/kg. Moreover, in series [8], the log partition coefficient (logP) was 3.3.
Take `COc1cccc([C@@H](C)NC(=O)c2ccc(-c3ccnc(F)c3)cn2)c1`: the results for the IC50 in [1] and in series [2] were 1030 nM and 50 nM, respectively.
As for `COc1cccc([C@@H](C)NC(=O)[C@H]2CC[C@H](c3ccncc3)CC2)c1`, the IC50 is 5030 nM in series [3], 974 nM in [1] and 98 nM in [2].
Consider `COc1cccc([C@@H](C)NC(=O)[C@H]2CC[C@H](c3ccncc3)C[C@H]2C)c1`, for which the efflux ratio at 1 h, 10 µM with MDR1 was 1.1. The Papp at 1 h, 10 µM in [5] turned out to be 77.6 ×10⁻⁶ cm/s. The IC50 is 33800 nM in [3], 963 nM in series [1] and 45 nM in series [2]. Moreover, the solubility kinetic at 2 h in [6] came to 130 µM (≈ 45.8 µg/mL). Besides, in series [7], the CLint scaled at 1 µM is 90 mL/min/kg.
For `COc1cccc([C@@H](C)NC(=O)N2CCC(c3ccncc3F)CC2)c1`, the IC50 was 31800 nM in series [3], 721 nM in series [1] and 45 nM in series [2].
The matching figures for `COc1cc([C@@H](C)NC(=O)N2CCN(c3ccncc3F)C[C@H]2C)ccc1F`: 2340 nM, 33 nM and 3 nM.
For the molecule `COc1cccc([C@@H](C)NC(=O)N2CCN(c3ccncc3F)CC2)c1`, the values for the IC50 in series [3], in series [1] and in [2] were 1830 nM, 126 nM and 7 nM, respectively.
In the case of `O=S(=O)(c1cccc2c(O)nccc12)N1CCCNCC1` [HYDROXYFASUDIL], in [6], the solubility kinetic at 2 h was above 200 µM. In series [1], the IC50 was found to be 3820 nM. In series [8], this molecule showed a logP of 1.43.
Take `COc1cccc([C@@H](C)NC(=O)N2CC[C@H](c3ccncc3)C[C@H]2C)c1`: the IC50 in series [3] was found to be 23000 nM; in [1], 71 nM; in series [2], 9 nM.
In the case of `CS(=O)(=O)Nc1cccc(CC(=O)Nc2cc(-c3ccnc(F)c3)cs2)c1`, in [6], the solubility kinetic at 2 h turned out to be 77 µM (≈ 31.2 µg/mL). In [8], this molecule displayed a logP of 3.45.
Consider `COc1cccc([C@@H](C)NC(=O)N2CCN(c3ccncc3F)C[C@H]2C)c1F`, for which the efflux ratio at 1 h, 10 µM in the series with MDR1 was found to be 1.3. In series [4], the chromatographic logD worked out at 2.3. For the same molecule, the Papp at 1 h, 10 µM in [5] turned out to be 79.7 ×10⁻⁶ cm/s. Besides, the IC50 in series [3] came out at 50900 nM; in series [1] it was 323 nM. Also, the solubility kinetic at 2 h in series [6] was determined as 150 µM (≈ 58.6 µg/mL). Besides, the CLint scaled at 1 µM in series [7] is 79 mL/min/kg. The logP in series [8] stood at 2.6.
As to `COc1ccc(F)c([C@@H](C)NC(=O)N2CCN(c3ccncc3F)C[C@H]2C)c1`, the values for the IC50 in [3], in series [1] and in [2] were 13100 nM, 108 nM and 7 nM, respectively.
As to `C[C@@H](N)[C@H]1CC[C@H](C(=O)Nc2ccncc2)CC1` [Y-27632], the chromatographic logD in series [4] turned out to be 1.03. In series [1], the IC50 is 3030 nM. The same molecule displayed a logP in series [8] of 0.62.
Take `COc1cccc([C@@H](C)NC(=O)c2ccc(-c3ccnc(F)c3)cc2)c1`: the IC50 is 17 nM in series [3], 77 nM in series [1] and 2370 nM in series [9].
As to `COc1cccc([C@@H](C)NC(=O)[C@H]2CC[C@@H](c3ccncc3)CC2)c1`, the IC50 was 24300 nM in [3], above 5000 nM in series [1] and 4330 nM in series [2].
Consider `COc1cccc([C@@H](C)NC(=O)N2CCN(c3ccncc3)CC2)c1`, for which the IC50 in series [1] was 1460 nM; in series [2] it was 4790 nM.
Turning to `COc1cccc([C@@H](C)NC(=O)c2ccc(-c3ccncc3)nc2)c1`, the IC50 in series [3] amounted to 39 nM; in series [1], 44 nM; in series [2], 4 nM.
In series [4], `COc1cccc(CC(=O)Nc2cc(-c3ccnc(F)c3)cs2)c1` yielded a chromatographic logD of 2.83. Moreover, the solubility kinetic at 2 h in [6] came out at 17 µM (≈ 5.82 µg/mL). Moreover, the IC50 in [1] is 830 nM; in series [2] it was 15 nM. The same molecule came in with a logP in series [8] of 4.53.
As to `COc1cccc([C@@H](C)NC(=O)N2CC[C@H](c3ccncc3)C[C@@H]2C)c1`, the 50% inhibitory concentration (IC50) was determined as 48800 nM in series [3], 3310 nM in series [1] and 1640 nM in [2].
`COc1cccc([C@@H](C)NC(=O)N2CCC(c3ccncc3)CC2)c1`: the half-inhibitory concentration (IC50) came out at 52800 nM in [3], 673 nM in [1] and 74 nM in series [2].
Regarding `COc1cccc([C@@H](C)NC(=O)N2CC[C@@H](c3ccncc3)C[C@@H]2C)c1`, the figures for the IC50 in [3], in series [1] and in [2] were 53700 nM, 4930 nM and 1300 nM, respectively.

The term IC50 denotes the concentration that inhibits the measured activity by half. One may read the efflux ratio as the permeability from basolateral to apical divided by that in the opposite direction, in the common usage. Broadly, the chromatographic logD is a lipophilicity value derived from retention on a column. High values mean higher lipophilicity, low ones lower lipophilicity. Broadly, the Papp is the rate of passage across a membrane or cell layer, normalised by area and donor concentration. As usually defined, the logP is a log measure of how a compound divides between an organic and an aqueous phase. A lower logP goes with a more hydrophilic compound.
